Reference: US20100267561A1, “HERBICIDAL PYRIDAZINONE DERIVATIVES” (priority 2007, published 2010)

Tests used:
Format in all cases: in vivo
[1] = test system: chickweed (Stellaria media); assay: Test B postemergence plant response; conditions: Postemergence
Outline: (§1)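 Visual injury ratings on a 0–100 scale, where 100 means complete control, were made 13 to 15 days after postemergence treatment of greenhouse-grown plants at the 1- to 4-leaf stage.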

[2] = test system: windgrass (Apera spica-venti); assay: Test B postemergence plant response; conditions: Postemergence
Outline: as §1

[3] = test system: canarygrass (Phalaris minor); assay: Test B postemergence plant response; conditions: Postemergence
Outline: as §1

[4] = test system: winter barley (Hordeum vulgare); assay: Test B postemergence plant response; conditions: Postemergence
Outline: as §1

[5] = test system: ducksalad (Heteranthera limosa); assay: Test B flooded paddy test plant response
Outline: (§2)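 Rice, umbrella sedge, ducksalad and barnyardgrass at 2-leaf stage; pots flooded to 3 cm, compounds applied into paddy water, depth held throughout. Greenhouse 13 to 15 days, then visual rating vs untreated controls on 0–100 scale (0 no effect, 100 complete control); dash means no test result.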

rice (Oryza sativa) = assay: Test B flooded paddy test plant response
Outline: as §2

[6] = test system: umbrella sedge (Cyperus difformis); assay: Test B flooded paddy test plant response
Outline: as §2

[7] = test system: barnyardgrass (Echinochloa crus-galli); assay: Test B flooded paddy test plant response
Outline: as §2

[8] = test system: large crabgrass (Digitaria sanguinalis); assay: Test A pre-/postemergence plant response
Outline: (§3)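 Greenhouse pot test: loam–sand soil; pre- and postemergence sprays applied same day; post plants 2–10 cm, 1–2 leaves. Readout ~10 d, visual % injury vs untreated (0 = none, 100 = complete control).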

[9] = test system: pigweed (Amaranthus retroflexus); assay: Test A pre-/postemergence plant response
Outline: as §3

[10] = test system: giant foxtail (Setaria faberi); assay: Test A pre-/postemergence plant response
Outline: as §3

[11] = test system: morningglory (Ipomoea coccinea); assay: Test A pre-/postemergence plant response
Outline: as §3

[12] = test system: velvetleaf (Abutilon theophrasti); assay: Test A pre-/postemergence plant response
Outline: as §3

corn (Zea mays) = assay: Test A pre-/postemergence plant response
Outline: as §3

[13] = test system: barnyardgrass (Echinochloa crus-galli); assay: Test A pre-/postemergence plant response
Outline: as §3

[14] = 31 g ai/ha, scale 0 to 100, 0 no effect, 100 complete control
[15] = Flood (flooded paddy test), 62 g ai/ha, scale 0 to 100, 0 no effect, 100 complete control
[16] = Flood (flooded paddy test), 125 g ai/ha, scale 0 to 100, 0 no effect, 100 complete control
[17] = Flood (flooded paddy test), 250 g ai/ha, scale 0 to 100, 0 no effect, 100 complete control
[18] = Flood, 31 g ai/ha, scale 0 to 100
[19] = Postemergence, 125 g ai/ha, 0 to 100 scale, 0 no effect, 100 complete control
[20] = Postemergence, 500 g ai/ha, 0 to 100 scale, 0 no effect, 100 complete control
[21] = Preemergence, 125 g ai/ha, 0 to 100 scale (0 no effect, 100 complete control)
[22] = Preemergence, 500 g ai/ha, 0 to 100 scale (0 no effect, 100 complete control)

Q: For `Cc1cc(-c2ccc(Br)cc2)nn1-c1c(OC(=O)OC(C)C)cnn(C)c1=O` [Compound 6], which “Plant response rating, Chickweed” value [1, 14] is on record?
A: The value was 0.

Q: And the “Plant response rating, Chickweed” value ([1]; 62 g ai/ha, scale 0 to 100)?
A: Its value is 0.

Q: What about the “Plant response rating, Chickweed” value ([1]; 125 g ai/ha, scale 0 to 100) of the same molecule?
A: The value was 0.

Q: What about the “Plant response rating, Chickweed” value ([1]; 250 g ai/ha, scale 0 to 100) of the same molecule?
A: Its value is 0.

Q: And the “Plant response rating, Windgrass” value [2, 14]?
A: The value was 90.

Q: And the “Plant response rating, Windgrass” value ([2]; 62 g ai/ha, scale 0 to 100)?
A: Its value is 95.

Q: What about the “Plant response rating, Windgrass” value ([2]; 125 g ai/ha, scale 0 to 100) of the same molecule?
A: The value was 100.

Q: And the “Plant response rating, Windgrass” value ([2]; 250 g ai/ha, scale 0 to 100)?
A: The value was 100.

Q: And the “Plant response rating, Canarygrass” value [3, 14]?
A: Its value is 95.

Q: What about the “Plant response rating, Canarygrass” value ([3]; 62 g ai/ha, scale 0 to 100) of the same molecule?
A: Its value is 95.

Q: What about the “Plant response rating, Canarygrass” value ([3]; 125 g ai/ha, scale 0 to 100) of the same molecule?
A: The value was 100.

Q: And the “Plant response rating, Canarygrass” value ([3]; 250 g ai/ha, scale 0 to 100)?
A: Its value is 100.

Q: What about the “Plant response rating, Barley” value [4, 14] of the same molecule?
A: Its value is 30.

Q: What about the “Plant response rating, Barley” value ([4]; 62 g ai/ha, scale 0 to 100) of the same molecule?
A: The value was 30.

Q: And the “Plant response rating, Barley” value ([4]; 125 g ai/ha, scale 0 to 100)?
A: Its value is 80.

Q: What about the “Plant response rating, Barley” value ([4]; 250 g ai/ha, scale 0 to 100) of the same molecule?
A: The value was 80.

Q: What about the “Plant response rating, Ducksalad” value [5, 15] of the same molecule?
A: The value was 50.

Q: And the “Plant response rating, Ducksalad” value [5, 16]?
A: The value was 60.

Q: And the “Plant response rating, Ducksalad” value [5, 17]?
A: The value was 70.

Q: What about the “Plant response rating, Ducksalad” value [5, 18] of the same molecule?
A: Its value is 40.

Q: And the “Plant response rating, Rice” value (rice (Oryza sativa); [15])?
A: The value was 30.

Q: And the “Plant response rating, Rice” value (rice (Oryza sativa); [16])?
A: Its value is 80.

Q: And the “Plant response rating, Rice” value (rice (Oryza sativa); [17])?
A: The value was 90.

Q: What about the “Plant response rating, Rice” value (rice (Oryza sativa); [18]) of the same molecule?
A: Its value is 20.

Q: And the “Plant response rating, Sedge, Umbrella” value [6, 15]?
A: The value was 70.

Q: And the “Plant response rating, Sedge, Umbrella” value [6, 16]?
A: The value was 85.

Q: What about the “Plant response rating, Sedge, Umbrella” value [6, 17] of the same molecule?
A: Its value is 95.

Q: What about the “Plant response rating, Sedge, Umbrella” value [6, 18] of the same molecule?
A: Its value is 30.

Q: What about the “Plant response rating, Barnyardgrass” value [7, 15] of the same molecule?
A: Its value is 40.

Q: And the “Plant response rating, Barnyardgrass” value [7, 16]?
A: Its value is 80.

Q: And the “Plant response rating, Barnyardgrass” value [7, 17]?
A: The value was 90.

Q: What about the “Plant response rating, Barnyardgrass” value [7, 18] of the same molecule?
A: Its value is 0.

Q: And the “Plant response rating, Crabgrass, Large” value [8, 19]?
A: Its value is 90.

Q: And the “Plant response rating, Crabgrass, Large” value [8, 20]?
A: Its value is 90.

Q: And the “Plant response rating, Crabgrass, Large” value [8, 21]?
A: Its value is 100.

Q: And the “Plant response rating, Crabgrass, Large” value [8, 22]?
A: The value was 100.

Q: And the “Plant response rating, Pigweed” value [9, 19]?
A: The value was 0.

Q: What about the “Plant response rating, Pigweed” value [9, 20] of the same molecule?
A: Its value is 30.

Q: What about the “Plant response rating, Pigweed” value [9, 21] of the same molecule?
A: The value was 20.

Q: What about the “Plant response rating, Pigweed” value [9, 22] of the same molecule?
A: The value was 40.

Q: And the “Plant response rating, Foxtail, Giant” value [10, 19]?
A: The value was 90.

Q: And the “Plant response rating, Foxtail, Giant” value [10, 20]?
A: Its value is 90.

Q: What about the “Plant response rating, Foxtail, Giant” value [10, 21] of the same molecule?
A: The value was 100.

Q: And the “Plant response rating, Foxtail, Giant” value [10, 22]?
A: The value was 100.

Q: And the “Plant response rating, Morningglory” value [11, 19]?
A: Its value is 30.

Q: What about the “Plant response rating, Morningglory” value [11, 20] of the same molecule?
A: The value was 50.

Q: And the “Plant response rating, Morningglory” value [11, 21]?
A: The value was 30.

Q: What about the “Plant response rating, Morningglory” value [11, 22] of the same molecule?
A: The value was 40.

Q: And the “Plant response rating, Velvetleaf” value [12, 19]?
A: Its value is 40.

Q: What about the “Plant response rating, Velvetleaf” value [12, 20] of the same molecule?
A: Its value is 50.

Q: And the “Plant response rating, Velvetleaf” value [12, 21]?
A: The value was 40.

Q: What about the “Plant response rating, Velvetleaf” value [12, 22] of the same molecule?
A: The value was 50.

Q: What about the “Plant response rating, Corn” value (corn (Zea mays); [19]) of the same molecule?
A: The value was 100.

Q: And the “Plant response rating, Corn” value (corn (Zea mays); [20])?
A: Its value is 100.

Q: And the “Plant response rating, Corn” value (corn (Zea mays); [21])?
A: The value was 80.

Q: And the “Plant response rating, Corn” value (corn (Zea mays); [22])?
A: Its value is 90.

Q: And the “Plant response rating, Barnyardgrass” value [13, 19]?
A: Its value is 90.

Q: What about the “Plant response rating, Barnyardgrass” value [13, 20] of the same molecule?
A: The value was 100.

Q: What about the “Plant response rating, Barnyardgrass” value [13, 21] of the same molecule?
A: The value was 90.

Q: What about the “Plant response rating, Barnyardgrass” value [13, 22] of the same molecule?
A: Its value is 100.

Q: What does the source list for `Cc1cc(-c2ccc(Br)cc2)nn1-c1c(O)cnn(C)c1=O` [Compound 4]?
A: Plant response rating, Chickweed [1, 14]: 0; Plant response rating, Chickweed ([1]; 62 g ai/ha, scale 0 to 100): 0; Plant response rating, Chickweed ([1]; 125 g ai/ha, scale 0 to 100): 0; Plant response rating, Chickweed ([1]; 250 g ai/ha, scale 0 to 100): 20; Plant response rating, Windgrass [2, 14]: 90; Plant response rating, Windgrass ([2]; 62 g ai/ha, scale 0 to 100): 100; Plant response rating, Windgrass ([2]; 125 g ai/ha, scale 0 to 100): 100; Plant response rating, Windgrass ([2]; 250 g ai/ha, scale 0 to 100): 100; Plant response rating, Canarygrass [3, 14]: 80; Plant response rating, Canarygrass ([3]; 62 g ai/ha, scale 0 to 100): 90; Plant response rating, Canarygrass ([3]; 125 g ai/ha, scale 0 to 100): 100; Plant response rating, Canarygrass ([3]; 250 g ai/ha, scale 0 to 100): 100; Plant response rating, Barley [4, 14]: 0; Plant response rating, Barley ([4]; 62 g ai/ha, scale 0 to 100): 10; Plant response rating, Barley ([4]; 125 g ai/ha, scale 0 to 100): 90; Plant response rating, Barley ([4]; 250 g ai/ha, scale 0 to 100): 95; Plant response rating, Ducksalad [5, 15]: 75; Plant response rating, Ducksalad [5, 16]: 85; Plant response rating, Ducksalad [5, 17]: 85; Plant response rating, Ducksalad [5, 18]: 0; Plant response rating, Rice (rice (Oryza sativa); [15]): 40; Plant response rating, Rice (rice (Oryza sativa); [16]): 70; Plant response rating, Rice (rice (Oryza sativa); [17]): 80; Plant response rating, Rice (rice (Oryza sativa); [18]): 15; Plant response rating, Sedge, Umbrella [6, 15]: 60; Plant response rating, Sedge, Umbrella [6, 16]: 90; Plant response rating, Sedge, Umbrella [6, 17]: 100; Plant response rating, Sedge, Umbrella [6, 18]: 40; Plant response rating, Barnyardgrass [7, 15]: 60; Plant response rating, Barnyardgrass [7, 16]: 70; Plant response rating, Barnyardgrass [7, 17]: 75; Plant response rating, Barnyardgrass [7, 18]: 0; Plant response rating, Crabgrass, Large [8, 19]: 100; Plant response rating, Crabgrass, Large [8, 20]: 100; Plant response rating, Crabgrass, Large [8, 21]: 100; Plant response rating, Crabgrass, Large [8, 22]: 100; Plant response rating, Pigweed [9, 19]: 0; Plant response rating, Pigweed [9, 20]: 20; Plant response rating, Pigweed [9, 21]: 0; Plant response rating, Pigweed [9, 22]: 0; Plant response rating, Foxtail, Giant [10, 19]: 100; Plant response rating, Foxtail, Giant [10, 20]: 100; Plant response rating, Foxtail, Giant [10, 21]: 100; Plant response rating, Foxtail, Giant [10, 22]: 100; Plant response rating, Morningglory [11, 19]: 0; Plant response rating, Morningglory [11, 20]: 20; Plant response rating, Morningglory [11, 21]: 0; Plant response rating, Morningglory [11, 22]: 0; Plant response rating, Velvetleaf [12, 19]: 20; Plant response rating, Velvetleaf [12, 20]: 60; Plant response rating, Velvetleaf [12, 21]: 0; Plant response rating, Velvetleaf [12, 22]: 10; Plant response rating, Corn (corn (Zea mays); [19]): 90; Plant response rating, Corn (corn (Zea mays); [20]): 100; Plant response rating, Corn (corn (Zea mays); [21]): 70; Plant response rating, Corn (corn (Zea mays); [22]): 90; Plant response rating, Barnyardgrass [13, 19]: 100; Plant response rating, Barnyardgrass [13, 20]: 100; Plant response rating, Barnyardgrass [13, 21]: 100; Plant response rating, Barnyardgrass [13, 22]: 100
